Results from patent US4684664A, “Derivatives of β-(4-isocyano-1,2,3,4-diepoxycyclopentyl) acrylic acid” (Kureha Kagaku Kogyo Kabushiki Kaisha, priority 1984, dated 1987).
≈ marks a conversion by molar mass, not a printed value.

Experiments:
Format in all cases: cell-based
[1] = system: Salmonella typhimurium IID 971; test: Antibacterial activity, agar-dilution MIC, organism No. 8; settings: Salmonella enterica; Organism No. 8, bouillon-agar; read-out: Minimum Inhibitory Concentration
Procedure, shortened: (§1)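 An agar-dilution procedure on bouillon-agar medium was applied, and each MIC was recorded as micrograms of specimen per ml of medium.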

[2] = system: Bacillus subtilis ATCC 6633; test: Antibacterial activity, agar-dilution MIC, organism No. 14; settings: Bacillus subtilis, ATCC6633; Organism No. 14, bouillon-agar; read-out: Minimum Inhibitory Concentration
Procedure, shortened: as §1

[3] = system: Streptococcus pyogenes Cook; test: Antibacterial activity, agar-dilution MIC, organism No. 4; settings: Streptococcus pyogenes; Organism No. 4, bouillon-agar; read-out: Minimum Inhibitory Concentration
Procedure, shortened: as §1

Salmonella typhi 901 = test: Antibacterial activity, agar-dilution MIC, organism No. 9; settings: Salmonella enterica, TYPHI, read-out: Minimum Inhibitory Concentration
Procedure, shortened: as §1

[4] = system: Staphylococcus aureus Terajima; test: Antibacterial activity, agar-dilution MIC, organism No. 2; settings: Staphylococcus aureus; Organism No. 2, bouillon-agar; read-out: Minimum Inhibitory Concentration
Procedure, shortened: as §1

[5] = system: Salmonella shottmuelleri 8006; test: Antibacterial activity, agar-dilution MIC, organism No. 11; settings: Salmonella, 8006; Organism No. 11, bouillon-agar; read-out: Minimum Inhibitory Concentration
Procedure, shortened: as §1

[6] = system: Enterobacter aerogenes ATCC 13048; test: Antibacterial activity, agar-dilution MIC, organism No. 23; settings: Klebsiella aerogenes, ATCC13048; Organism No. 23, bouillon-agar; read-out: Minimum Inhibitory Concentration
Procedure, shortened: as §1

[7] = system: Streptococcus pyogenes IFO 3340; test: Antibacterial activity, agar-dilution MIC, organism No. 26; settings: Streptococcus pyogenes, IFO3340; Organism No. 26, bouillon-agar; read-out: Minimum Inhibitory Concentration
Procedure, shortened: as §1

[8] = system: Aspergillus niger IFO 6342; test: Antifungal activity, agar-dilution MIC, organism No. 30; settings: Aspergillus niger, IFO6342; Organism No. 30, bouillon-agar; read-out: Minimum Inhibitory Concentration
Procedure, shortened: as §1

Proteus vulgaris OX-19 = test: Antibacterial activity, agar-dilution MIC, organism No. 20; settings: Proteus vulgaris, OX19; Organism No. 20, bouillon-agar; read-out: Minimum Inhibitory Concentration
Procedure, shortened: as §1

[9] = system: Escherichia coli NIHJ-JC-2; test: Antibacterial activity, agar-dilution MIC, organism No. 5; settings: Escherichia coli, NIHJJC2; Organism No. 5, bouillon-agar; read-out: Minimum Inhibitory Concentration
Procedure, shortened: as §1

Proteus vulgaris HX-19 = test: Antibacterial activity, agar-dilution MIC, organism No. 21; settings: Proteus vulgaris, HX19; Organism No. 21, bouillon-agar; read-out: Minimum Inhibitory Concentration
Procedure, shortened: as §1

[10] = system: Pseudomonas aeruginosa IFO 3445; test: Antibacterial activity, agar-dilution MIC, organism No. 15; settings: Pseudomonas aeruginosa, IFO3445; Organism No. 15, bouillon-agar; read-out: Minimum Inhibitory Concentration
Procedure, shortened: as §1

[11] = system: Escherichia coli K12 C600 IAM 1264; test: Antibacterial activity, agar-dilution MIC, organism No. 6; settings: Escherichia coli, IAM1264; Organism No. 6, bouillon-agar; read-out: Minimum Inhibitory Concentration
Procedure, shortened: as §1

[12] = system: Salmonella paratyphi-A 1015; test: Antibacterial activity, agar-dilution MIC, organism No. 10; settings: Salmonella enterica, PARATYPHI, read-out: Minimum Inhibitory Concentration
Procedure, shortened: as §1

[13] = system: Serratia marcescens IAM 1184; test: Antibacterial activity, agar-dilution MIC, organism No. 13; settings: Serratia marcescens, IAM1184; Organism No. 13, bouillon-agar; read-out: Minimum Inhibitory Concentration
Description: Agar-dilution method was used for determination of the antibacterial activity and antifungal activity while using bouillon-agar culture medium, and the minimum inhibitory concentration of the specimen was expressed by μg/ml of the culture medium.

[14] = system: Candida albicans IAM 4905; test: Antifungal activity, agar-dilution MIC, organism No. 29; settings: Candida albicans, IAM4905; Organism No. 29, bouillon-agar; read-out: Minimum Inhibitory Concentration
Procedure, shortened: as §1

[15] = system: Salmonella enteritidis G 14; test: Antibacterial activity, agar-dilution MIC, organism No. 12; settings: Salmonella enterica, ENTERITIDIS; Organism No. 12, bouillon-agar; read-out: Minimum Inhibitory Concentration
Procedure, shortened: as §1

[16] = system: Micrococcus luteus ATCC 9341; test: Antibacterial activity, agar-dilution MIC, organism No. 25; settings: Micrococcus luteus, ATCC9341; Organism No. 25, bouillon-agar; read-out: Minimum Inhibitory Concentration
Procedure, shortened: as §1

[17] = system: Proteus rettgeri IFO 3850; test: Antibacterial activity, agar-dilution MIC, organism No. 22; settings: Providencia rettgeri, IFO3850; Organism No. 22, bouillon-agar; read-out: Minimum Inhibitory Concentration
Procedure, shortened: as §1

[18] = system: Proteus morganii IFO 3848; test: Antibacterial activity, agar-dilution MIC, organism No. 18; settings: Morganella morganii, IFO3848; Organism No. 18, bouillon-agar; read-out: Minimum Inhibitory Concentration
Procedure, shortened: as §1

[19] = system: Klebsiella pneumoniae PCI-602; test: Antibacterial activity, agar-dilution MIC, organism No. 7; settings: Klebsiella pneumoniae, PCI602; Organism No. 7, bouillon-agar; read-out: Minimum Inhibitory Concentration
Procedure, shortened: as §1

[20] = system: Proteus mirabilis IFO 3849; test: Antibacterial activity, agar-dilution MIC, organism No. 19; settings: Proteus mirabilis, IFO3849; Organism No. 19, bouillon-agar; read-out: Minimum Inhibitory Concentration
Procedure, shortened: as §1

[21] = system: Staphylococcus aureus FDA 209PJc-1; test: Antibacterial activity, agar-dilution MIC, organism No. 1; settings: Staphylococcus aureus, FDA209PJC1; Organism No. 1, bouillon-agar; read-out: Minimum Inhibitory Concentration
Procedure, shortened: as §1

[22] = system: Pseudomonas aeruginosa NCTC 10490; test: Antibacterial activity, agar-dilution MIC, organism No. 16; settings: Pseudomonas aeruginosa, NCTC10490; Organism No. 16, bouillon-agar; read-out: Minimum Inhibitory Concentration
Procedure, shortened: as §1

[23] = system: Pseudomonas aeruginosa PAO 1; test: Antibacterial activity, agar-dilution MIC, organism No. 17; settings: Pseudomonas aeruginosa, PAO1; Organism No. 17, bouillon-agar; read-out: Minimum Inhibitory Concentration
Procedure, shortened: as §1

[24] = system: Staphylococcus aureus MS 353; test: Antibacterial activity, agar-dilution MIC, organism No. 3; settings: Staphylococcus aureus, MS353; Organism No. 3, bouillon-agar; read-out: Minimum Inhibitory Concentration
Procedure, shortened: as §1

Enterobacter cloacae 963 = test: Antibacterial activity, agar-dilution MIC, organism No. 24; settings: Enterobacter cloacae, 963; Organism No. 24, bouillon-agar; read-out: Minimum Inhibitory Concentration
Procedure, shortened: as §1

SMILES | MIC [1] | MIC [2] | MIC [3] | MIC (Salmonella typhi 901) | MIC [4] | MIC [5] | MIC [6] | MIC [8] | MIC (Proteus vulgaris OX-19) | MIC [9] | MIC (Proteus vulgaris HX-19) | MIC [10] | MIC [11] | MIC [12] | MIC [13] | MIC [14] | MIC [15] | MIC [16] | MIC [17] | MIC [18] | also measured
[C-]#[N+]C12CC3(/C=C/C(=O)Nc4ccc(OC(C)C)cc4)OC3C1O2 (centres unmarked) [compound 74] | > 200 µg/mL | 6.25 µg/mL (≈ 19.2 µM) | 100 µg/mL (≈ 306 µM) | 12.5 µg/mL (≈ 38.3 µM) | 6.25 µg/mL (≈ 19.2 µM) | 3.13 µg/mL (≈ 9.59 µM) | > 200 µg/mL | 12.5 µg/mL (≈ 38.3 µM) | 1.56 µg/mL (≈ 4.78 µM) | > 200 µg/mL | 1.56 µg/mL (≈ 4.78 µM) | > 200 µg/mL | > 200 µg/mL | 1.56 µg/mL (≈ 4.78 µM) | > 200 µg/mL | 12.5 µg/mL (≈ 38.3 µM) | 200 µg/mL (≈ 613 µM) | 12.5 µg/mL (≈ 38.3 µM) | 100 µg/mL (≈ 306 µM) | 6.25 µg/mL (≈ 19.2 µM) | MIC [7]: 3.13 µg/mL (≈ 9.59 µM); MIC [19]: 1.56 µg/mL (≈ 4.78 µM); MIC [20]: > 200 µg/mL; MIC [21]: 0.78 µg/mL (≈ 2.39 µM); MIC [22]: > 200 µg/mL; MIC [23]: > 200 µg/mL; MIC [24]: 1.56 µg/mL (≈ 4.78 µM); MIC (Enterobacter cloacae 963): > 200 µg/mL
[C-]#[N+]C12CC3(/C=C/C(=O)Nc4ccc(OCCC)cc4)OC3C1O2 (centres unmarked) [compound 73] | > 200 µg/mL | 12.5 µg/mL (≈ 38.3 µM) | 100 µg/mL (≈ 306 µM) | 50 µg/mL (≈ 153 µM) | 1.56 µg/mL (≈ 4.78 µM) | 1.56 µg/mL (≈ 4.78 µM) | > 200 µg/mL | 12.5 µg/mL (≈ 38.3 µM) | 1.56 µg/mL (≈ 4.78 µM) | > 200 µg/mL | 0.78 µg/mL (≈ 2.39 µM) | > 200 µg/mL | > 200 µg/mL | 0.39 µg/mL (≈ 1.2 µM) | > 200 µg/mL | 12.5 µg/mL (≈ 38.3 µM) | > 200 µg/mL | 1.56 µg/mL (≈ 4.78 µM) | > 200 µg/mL | 12.5 µg/mL (≈ 38.3 µM) | MIC [7]: 1.56 µg/mL (≈ 4.78 µM); MIC [19]: 1.56 µg/mL (≈ 4.78 µM); MIC [20]: > 200 µg/mL; MIC [21]: 0.78 µg/mL (≈ 2.39 µM); MIC [22]: > 200 µg/mL; MIC [23]: > 200 µg/mL; MIC [24]: 1.56 µg/mL (≈ 4.78 µM); MIC (Enterobacter cloacae 963): > 200 µg/mL
[C-]#[N+]C12CC3(/C=C/C(=O)Nc4nc5ccccc5s4)OC3C1O2 (centres unmarked) [compound 70] | > 200 µg/mL | 3.13 µg/mL (≈ 9.62 µM) | 1.56 µg/mL (≈ 4.79 µM) | > 200 µg/mL | 0.78 µg/mL (≈ 2.4 µM) | > 200 µg/mL | > 200 µg/mL | 6.25 µg/mL (≈ 19.2 µM) | 1.56 µg/mL (≈ 4.79 µM) | > 200 µg/mL | 1.56 µg/mL (≈ 4.79 µM) | > 200 µg/mL | > 200 µg/mL | 3.13 µg/mL (≈ 9.62 µM) | > 200 µg/mL | 1.56 µg/mL (≈ 4.79 µM) | > 200 µg/mL | > 200 µg/mL | > 200 µg/mL | 6.25 µg/mL (≈ 19.2 µM) | MIC [19]: 1.56 µg/mL (≈ 4.79 µM); MIC [20]: > 200 µg/mL; MIC [21]: 0.39 µg/mL (≈ 1.2 µM); MIC [22]: > 200 µg/mL; MIC [23]: > 200 µg/mL; MIC [24]: 0.39 µg/mL (≈ 1.2 µM); MIC (Enterobacter cloacae 963): > 200 µg/mL
